Measurements: ChEMBL document CHEMBL5729245, “Dioxinoquinoline compounds, preparation method and uses thereof” (2022)

Experiments:
[1] = biological target: Vascular endothelial growth factor receptor 2 (Homo sapiens, UniProt P35968); test: Assay of Small Molecular Compounds for Inhibiting the Activity of VEGFR-2 Kinase: The assay is based on the LANCE TR-FRET technology of Perkin Elmer Inc., and the assay method is as follows:1. Dilution of compounds: a total of 11 concentrations were obtained using a 3-fold gradient dilution from the highest concentration of 2500 nM (the maximum final concentration of the drug used in this assay was 2500 nM, and the minimum final concentration was 0.042 nM).2. 2.5 μL of the gradient-diluted compounds were taken with a transfer pipette to a 384-well plate.3. Addition of enzyme: 5 μL of 2× VEGFR-2 kinase solution (concentration was 0.5 nM) was taken with a transfer pipette to the corresponding reaction well of the 384-well plate, mixed well and pre-reacted at room temperature for 30 minutes.4. 2.5 μL 4× Ultra ULight™-JAK-1 (Tyr1023) Peptide (concentration was 200 nM)/ATP (concentration was 40 μM) mixture was taken with a transfer pipette to the corresponding reaction well of the 384-well plate.5. Negative control: 2.5 μL/well 4× substrate/ATP mixture and 7.5 μL 1× Kinase Assay Buffer were added to the wells of the 384-well plate.6. Positive control: 2.5 μL/well 4× substrate/ATP mixture, 2.5 μL/well 1× Kinase Assay Buffer containing 16% DMSO, and 5 μL/well 2× VEGFR-2 kinase solution were added to the 384-well plate. The final concentration of DMSO in the reaction system was 4%.7. The mixture was mixed well and then centrifuged and reacted at room temperature in dark for 60 min.8. Termination of the enzymatic reaction: 5 μL of 4× stop solution was taken with a transfer pipette to the wells of the 384-well plate, mixed and then centrifuged, and reacted at room temperature for 5 min.9. Development of the reaction: 5 μL of 4× detection solution was taken with a transfer pipette to the wells of the 384-well plate for color development, and the mixture was mixed and then centrifuged and reacted at room temperature for 60 min.10. The 384-well plate was placed into the Envision plate reader and the signal was detected using the appropriate program.11. Analysis and processing of the raw data:The drug concentrations and the corresponding inhibition rates were input into GraphPad Prism5 for calculation, and the inhibition rate of the compounds were calculated as follows: inhibition rate (%)=(reading of positive well−reading of experimental well)/(reading of positive control well−reading of negative control well)×100%. Processing with GraphPad Prism5 software yielded the corresponding IC50 values (the concentration of the compound at which 50% of the highest inhibition of the enzyme is achieved).
Chain of Vascular endothelial growth factor receptor 2 (P35968 whole entry): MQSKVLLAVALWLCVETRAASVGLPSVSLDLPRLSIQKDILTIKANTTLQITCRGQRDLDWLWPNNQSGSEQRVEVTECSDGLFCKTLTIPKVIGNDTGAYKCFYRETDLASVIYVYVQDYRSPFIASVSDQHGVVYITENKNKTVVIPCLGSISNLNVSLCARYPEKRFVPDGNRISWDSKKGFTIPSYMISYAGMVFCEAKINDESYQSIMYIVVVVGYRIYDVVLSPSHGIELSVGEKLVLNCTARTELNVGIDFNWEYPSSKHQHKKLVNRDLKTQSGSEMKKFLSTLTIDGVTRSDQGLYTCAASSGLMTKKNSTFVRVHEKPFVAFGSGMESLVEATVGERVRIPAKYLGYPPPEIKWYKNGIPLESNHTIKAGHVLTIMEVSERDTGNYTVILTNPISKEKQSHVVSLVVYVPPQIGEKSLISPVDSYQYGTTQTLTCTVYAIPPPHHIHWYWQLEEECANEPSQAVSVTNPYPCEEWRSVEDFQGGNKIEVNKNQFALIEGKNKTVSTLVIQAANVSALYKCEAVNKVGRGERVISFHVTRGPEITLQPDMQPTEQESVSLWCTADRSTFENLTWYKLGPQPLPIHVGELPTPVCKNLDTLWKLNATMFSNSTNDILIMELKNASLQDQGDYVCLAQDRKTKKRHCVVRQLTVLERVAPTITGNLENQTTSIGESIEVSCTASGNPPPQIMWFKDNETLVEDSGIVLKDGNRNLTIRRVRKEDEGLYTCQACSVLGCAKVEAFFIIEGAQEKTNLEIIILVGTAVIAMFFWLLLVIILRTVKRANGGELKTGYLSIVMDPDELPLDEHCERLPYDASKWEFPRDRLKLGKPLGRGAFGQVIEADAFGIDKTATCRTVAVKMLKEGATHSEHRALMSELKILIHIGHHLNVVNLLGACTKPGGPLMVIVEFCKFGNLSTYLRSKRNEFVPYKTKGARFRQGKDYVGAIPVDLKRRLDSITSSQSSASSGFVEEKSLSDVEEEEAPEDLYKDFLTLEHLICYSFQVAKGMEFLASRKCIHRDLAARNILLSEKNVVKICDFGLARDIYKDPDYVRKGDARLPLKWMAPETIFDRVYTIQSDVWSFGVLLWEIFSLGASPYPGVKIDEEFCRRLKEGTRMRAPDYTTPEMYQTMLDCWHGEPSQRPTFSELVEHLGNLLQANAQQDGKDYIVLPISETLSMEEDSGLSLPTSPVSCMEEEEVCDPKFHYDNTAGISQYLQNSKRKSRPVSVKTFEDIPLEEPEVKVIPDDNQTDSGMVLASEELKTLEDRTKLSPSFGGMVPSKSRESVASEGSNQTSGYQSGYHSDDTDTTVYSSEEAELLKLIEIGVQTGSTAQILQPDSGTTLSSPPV

[2] = biological target: Hepatocyte growth factor receptor (Homo sapiens, UniProt P08581); test: Assay of Small Molecular Compounds for Inhibiting the Activity of c-MET Kinase: The assay is based on the LANCE TR-FRET technology of Perkin Elmer Inc., and the assay method is as follows:1. Dilution of compounds: a total of 11 concentrations were obtained using a 3-fold gradient dilution from the highest concentration of 2500 nM (the maximum final concentration of the drug used in this assay was 2500 nM, and the minimum final concentration was 0.042 nM).2. 2.5 μL of the gradient-diluted compounds were taken with a transfer pipette to a 384-well plate.3. Addition of enzyme: 5 μL of 2× c-MET kinase solution (concentration was 2 nM) was taken with a transfer pipette to the corresponding reaction well of the 384-well plate, mixed well and pre-reacted at room temperature for 5 minutes.4. 2.5 μL 4× Ultra ULight™-JAK-1 (Tyr1023) Peptide (concentration was 400 nM)/ATP (concentration was 40 μM) mixture was taken with a transfer pipette to the corresponding reaction well of the 384-well plate.5. Negative control: 2.5 μL/well 4× substrate/ATP mixture and 7.5 μL 1× Kinase Assay Buffer were added to the wells of the 384-well plate.6. Positive control: 2.5 μL/well 4× substrate/ATP mixture, 2.5 μL/well 1× Kinase Assay Buffer containing 16% DMSO, and 5 µL/well 2× c-MET kinase solution were added to the 384-well plate. The final concentration of DMSO in the reaction system was 4%.7. The mixture was mixed well and then centrifuged and reacted at room temperature in dark for 60 min.8. Termination of the enzymatic reaction: 5 μL of 4× stop solution was taken with a transfer pipette to the wells of the 384-well plate, mixed and then centrifuged, and reacted at room temperature for 5 min.9. Development of the reaction: 5 μL of 4× detection solution was taken with a transfer pipette to the wells of the 384-well plate for color development, and the mixture was mixed and then centrifuged and reacted at room temperature for 60 min.10. The 384-well plate was placed into the Envision plate reader and the signal was detected using the appropriate program.11. Analysis and processing of the raw data:12. The drug concentrations and the corresponding inhibition rates were input into GraphPad Prism5 for calculation, and the inhibition rate of the compounds were calculated as follows: inhibition rate (%)=(reading of positive well−reading of experimental well)/(reading of positive control well−reading of negative control well)×100%. Processing with GraphPad Prism5 software yielded the corresponding IC50 values (the concentration of the compound at which 50% of the highest inhibition of the enzyme is achieved).
Chain of Hepatocyte growth factor receptor (P08581 whole entry): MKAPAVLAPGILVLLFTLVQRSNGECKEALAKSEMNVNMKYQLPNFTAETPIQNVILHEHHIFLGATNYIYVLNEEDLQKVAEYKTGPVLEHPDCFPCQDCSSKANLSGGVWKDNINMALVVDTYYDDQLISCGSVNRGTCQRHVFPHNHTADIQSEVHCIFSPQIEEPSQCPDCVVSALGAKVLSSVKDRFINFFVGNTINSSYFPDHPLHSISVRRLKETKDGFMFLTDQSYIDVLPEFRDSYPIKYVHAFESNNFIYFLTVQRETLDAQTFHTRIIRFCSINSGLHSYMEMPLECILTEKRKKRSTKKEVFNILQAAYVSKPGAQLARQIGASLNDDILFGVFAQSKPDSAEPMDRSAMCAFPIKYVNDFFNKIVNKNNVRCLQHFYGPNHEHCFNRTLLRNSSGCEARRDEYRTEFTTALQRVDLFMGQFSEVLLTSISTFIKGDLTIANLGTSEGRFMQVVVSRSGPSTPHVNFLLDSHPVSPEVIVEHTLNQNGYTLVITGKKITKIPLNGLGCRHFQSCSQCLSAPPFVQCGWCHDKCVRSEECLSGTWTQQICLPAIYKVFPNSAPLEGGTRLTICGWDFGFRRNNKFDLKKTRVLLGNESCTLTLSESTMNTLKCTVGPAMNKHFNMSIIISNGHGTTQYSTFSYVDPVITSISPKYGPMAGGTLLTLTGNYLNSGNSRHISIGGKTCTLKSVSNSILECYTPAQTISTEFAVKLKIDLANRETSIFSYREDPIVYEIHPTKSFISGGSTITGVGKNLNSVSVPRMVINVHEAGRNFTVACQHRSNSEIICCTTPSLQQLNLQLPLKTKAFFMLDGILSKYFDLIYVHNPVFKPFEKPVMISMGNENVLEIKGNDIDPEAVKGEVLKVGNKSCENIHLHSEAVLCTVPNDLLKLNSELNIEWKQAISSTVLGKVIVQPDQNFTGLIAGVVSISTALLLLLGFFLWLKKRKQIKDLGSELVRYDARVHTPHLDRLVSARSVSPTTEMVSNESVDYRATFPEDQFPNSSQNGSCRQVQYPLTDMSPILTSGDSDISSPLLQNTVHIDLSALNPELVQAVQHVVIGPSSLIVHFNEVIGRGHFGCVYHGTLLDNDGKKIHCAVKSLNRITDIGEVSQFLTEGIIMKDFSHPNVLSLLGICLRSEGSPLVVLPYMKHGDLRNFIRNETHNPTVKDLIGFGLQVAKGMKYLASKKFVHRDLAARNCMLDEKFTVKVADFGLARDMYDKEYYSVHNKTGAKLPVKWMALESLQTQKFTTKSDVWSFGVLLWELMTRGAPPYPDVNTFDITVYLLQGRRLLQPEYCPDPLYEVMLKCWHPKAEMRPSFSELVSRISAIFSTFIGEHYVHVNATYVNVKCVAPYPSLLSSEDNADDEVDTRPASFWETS

Row | SMILES | IC50 [1] [nM] | IC50 [2] [nM]
1 | O=C(Nc1ccc(F)cc1)C1(C(=O)Nc2ccc(Oc3ccnc4cc(OC5CCOCC5)c5c(c34)OCCO5)c(F)c2)CC1 | – | < 50
2 | CCOc1cc2nccc(Oc3ccc(NC(=O)C4(C(=O)Nc5ccc(F)cc5)CC4)cc3F)c2c2c1OCCO2 | < 50 | < 50
3 | N#CCOc1cc2nccc(Oc3ccc(NC(=O)C4(C(=O)Nc5ccc(F)cc5)CC4)cc3F)c2c2c1OCCO2 | – | < 50
4 | O=C(Nc1ccc(F)cc1)C1(C(=O)Nc2ccc(Oc3ccnc4cc(OC5COC5)c5c(c34)OCCO5)c(F)c2)CC1 | < 50 | < 50
5 | COc1cc2nccc(Oc3cc(Cl)c(NC(=O)C4(C(=O)Nc5ccc(F)cc5)CC4)cc3F)c2c2c1OCCO2 | > 5000 | < 50
6 | COc1cc2nccc(Oc3ccc(NC(=O)C4(C(=O)Nc5ccc(F)cc5)CC4)cc3F)c2c2c1OCCO2 | < 50 | < 50
7 | CC(C)(O)COc1cc2nccc(Oc3ccc(NC(=O)C4(C(=O)Nc5ccc(F)cc5)CC4)cc3F)c2c2c1OCCO2 | < 50 | < 50
8 | NC1(COc2cc3nccc(Oc4ccc(NC(=O)C5(C(=O)Nc6ccc(F)cc6)CC5)cc4F)c3c3c2OCCO3)CC1 | < 50 | < 50
9 | CC(C)Oc1cc2nccc(Oc3ccc(NC(=O)C4(C(=O)Nc5ccc(F)cc5)CC4)cc3F)c2c2c1OCCO2 | – | < 50
10 | COCCN(C)CCCOc1cc2nccc(Oc3ccc(NC(=O)C4(C(=O)Nc5ccc(F)cc5)CC4)cc3F)c2c2c1OCCO2 | < 50 | < 50
11 | COCCOc1cc2nccc(Oc3ccc(NC(=O)C4(C(=O)Nc5ccc(F)cc5)CC4)cc3F)c2c2c1OCCO2 | < 50 | < 50
12 | O=C(Nc1ccc(F)cc1)C1(C(=O)Nc2ccc(Oc3ccnc4cc(OC5CCOC5)c5c(c34)OCCO5)c(F)c2)CC1 (stereo unspecified) | < 50 | < 50
13 | CN(C)CCCCCCOc1cc2nccc(Oc3ccc(NC(=O)C4(C(=O)Nc5ccc(F)cc5)CC4)cc3F)c2c2c1OCCO2 | < 50 | < 50
14 | COc1cc2nccc(Oc3ccc(NC(=O)C4(C(=O)Nc5ccc(F)cc5)CC4)cc3)c2c2c1OCCO2 | < 50 | < 50

Results, then the molecule that gave them:

Row | IC50 [1] [nM] | IC50 [2] [nM] | SMILES
15 | < 50 | < 50 | N#CCCCOc1cc2nccc(Oc3ccc(NC(=O)C4(C(=O)Nc5ccc(F)cc5)CC4)cc3F)c2c2c1OCCO2
16 | < 50 | < 50 | COCCCOc1cc2nccc(Oc3ccc(NC(=O)C4(C(=O)Nc5ccc(F)cc5)CC4)cc3F)c2c2c1OCCO2
17 | < 50 | < 50 | O=C(Nc1ccc(F)cc1)C1(C(=O)Nc2ccc(Oc3ccnc4cc(OCCCN5CCS(=O)(=O)CC5)c5c(c34)OCCO5)c(F)c2)CC1
18 | – | < 50 | O=C(Nc1ccc(F)cc1)C1(C(=O)Nc2ccc(Oc3ccnc4cc(OCCCN5CCOCC5)c5c(c34)OCCO5)c(Cl)c2)CC1
19 | < 50 | < 50 | O=C(Nc1ccc(F)cc1)C1(C(=O)Nc2ccc(Oc3ccnc4cc(OCCCN5CCOCC5)c5c(c34)OCCO5)cc2)CC1
20 | < 50 | < 50 | CC1(N)CCN(CCCOc2cc3nccc(Oc4ccc(NC(=O)C5(C(=O)Nc6ccc(F)cc6)CC5)cc4F)c3c3c2OCCO3)CC1
21 | < 50 | < 50 | O=C(Nc1ccc(F)cc1)C1(C(=O)Nc2ccc(Oc3ccnc4cc(OCCCN5CCCC5)c5c(c34)OCCO5)c(F)c2)CC1
22 | < 50 | < 50 | CC1(C)CCN(CCCOc2cc3nccc(Oc4ccc(NC(=O)C5(C(=O)Nc6ccc(F)cc6)CC5)cc4F)c3c3c2OCCO3)CC1
23 | < 50 | < 50 | CN(CCCOc1cc2nccc(Oc3ccc(NC(=O)C4(C(=O)Nc5ccc(F)cc5)CC4)cc3F)c2c2c1OCCO2)C1CCC1
24 | < 50 | < 50 | O=C(Nc1ccc(F)cc1)C1(C(=O)Nc2ccc(Oc3ccnc4cc(OCCCN5CCCCC5)c5c(c34)OCCO5)c(F)c2)CC1
25 | < 50 | < 50 | CN(C)CCCOc1cc2nccc(Oc3ccc(NC(=O)C4(C(=O)Nc5ccc(F)cc5)CC4)cc3F)c2c2c1OCCO2
26 | < 50 | < 50 | CC1(O)CCN(CCCOc2cc3nccc(Oc4ccc(NC(=O)C5(C(=O)Nc6ccc(F)cc6)CC5)cc4F)c3c3c2OCCO3)CC1
27 | – | < 50 | O=C(Nc1ccc(F)cc1)C1(C(=O)Nc2ccc(Oc3ccnc4cc(OCCCN5CCOCC5)c5c(c34)OCCO5)cc2Cl)CC1
28 | < 50 | < 50 | O=C(Nc1ccc(F)cc1)C1(C(=O)Nc2ccc(Oc3ccnc4cc(OCCO)c5c(c34)OCCO5)c(F)c2)CC1
29 | < 50 | < 50 | O=C(Nc1ccc(F)cc1)C1(C(=O)Nc2ccc(Oc3ccnc4cc(OCCCN5CCOCC5)c5c(c34)OCCO5)cc2F)CC1
30 | < 50 | < 50 | CN1CCN(CCCOc2cc3nccc(Oc4ccc(NC(=O)C5(C(=O)Nc6ccc(F)cc6)CC5)cc4F)c3c3c2OCCO3)CC1
31 | < 50 | < 50 | O=C(Nc1ccc(F)cc1)C1(C(=O)Nc2ccc(Oc3ccnc4cc(OCCCN5CCOCC5)c5c(c34)OCCO5)c(F)c2)CC1
32 | < 50 | < 50 | COc1cc2nccc(Oc3ccc(NC(=O)C4(C(=O)Nc5ccc(F)cc5)CC4)c(F)c3)c2c2c1OCCO2
33 | < 50 | < 50 | O=C(Nc1ccc(F)cc1)C1(C(=O)Nc2ccc(Oc3ccnc4cc(OCCCO)c5c(c34)OCCO5)c(F)c2)CC1
